Measured values: paper PMC5438973 (Frontiers in Psychiatry, 2017)
Several values for one entry are separate records, joined by “and”; a condition that tells them apart may be missing. Equal values may be shown once.

Columns and labels:
h5-HT2A [1] = molecular target: T1, h5-HT2A (Homo sapiens, UniProt P28223); assay: Radioligand binding, human cloned h5-HT2A
T1 construct: expressed in transfected cells; host or cells: AV12 cells
Experimental: (§1) Binding affinities at the serotonin receptors were determined by standard radioligand-binding methods using human cloned receptors as reported in the literature ([14], [15]).

Male, NIH Swiss mice [2] = test system: Male, NIH Swiss mice
Male, NIH Swiss mice [3] = assay: Nestlet-shredding; conditions: 8/dose group
h5-HT4 = molecular target: T2, h5-HT4 (Homo sapiens, UniProt Q13639); assay: Radioligand binding, human cloned h5-HT4; conditions: agonist radioligand, n = 2, read-out: Affinity, Mean
T2 construct: expressed in transfected cells
T2 sequence (Q13639 whole entry): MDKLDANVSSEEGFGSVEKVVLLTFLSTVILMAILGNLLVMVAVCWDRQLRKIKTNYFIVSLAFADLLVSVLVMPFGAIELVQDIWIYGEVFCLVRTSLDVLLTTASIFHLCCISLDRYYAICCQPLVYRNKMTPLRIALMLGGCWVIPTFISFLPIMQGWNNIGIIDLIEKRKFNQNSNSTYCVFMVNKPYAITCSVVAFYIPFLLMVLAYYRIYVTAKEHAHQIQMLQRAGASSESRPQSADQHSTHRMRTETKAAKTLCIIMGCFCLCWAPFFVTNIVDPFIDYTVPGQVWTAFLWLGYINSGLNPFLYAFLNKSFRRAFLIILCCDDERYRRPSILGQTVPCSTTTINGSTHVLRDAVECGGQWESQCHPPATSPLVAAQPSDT
Experimental: as §1

Male, Wistar rats = assay: Deprivation-induced drinking; format: in vivo, rat; conditions: 18 h water deprivation, 5.6 mg/kg
Experimental: Male, Wistar rats (different from those rats used in the schedule-induced polydipsia studies) were used. They were 320 ± 15 g at the initiation of this study. Water was removed from their home cage for 18 h after which water bottles were presented to each rat in an individual housing cage in a quiet room for 60 min. The weight of the water bottle before and after the 60 min period was measured to the nearest 0.1 g. Six to eight rats were studied per dose. It is noted that this deprivation period is considered stressful. After the experiment, the animals were returned to their living cages with continuous access to food and water.

h5-HT1E = molecular target: T3, h5-HT1E (Homo sapiens, UniProt P28566); assay: Radioligand binding, human cloned h5-HT1E; conditions: agonist radioligand, read-out: Affinity, Mean
T3 construct: expressed in transfected cells
T3 sequence (P28566 whole entry): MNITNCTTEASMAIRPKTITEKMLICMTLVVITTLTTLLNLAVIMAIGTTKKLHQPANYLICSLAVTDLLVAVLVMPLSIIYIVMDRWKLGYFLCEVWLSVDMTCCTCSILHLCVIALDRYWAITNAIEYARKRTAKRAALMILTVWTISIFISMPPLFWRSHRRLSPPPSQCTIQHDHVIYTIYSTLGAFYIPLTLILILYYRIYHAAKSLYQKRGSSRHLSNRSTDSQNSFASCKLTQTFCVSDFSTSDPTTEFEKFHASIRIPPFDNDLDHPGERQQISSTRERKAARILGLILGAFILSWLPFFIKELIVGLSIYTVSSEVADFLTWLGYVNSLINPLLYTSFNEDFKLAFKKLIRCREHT
Experimental: as §1

h5-HT2B [4] = molecular target: T4, h5-HT2B (Homo sapiens, UniProt P41595); assay: Radioligand binding, human cloned h5-HT2B
T4 construct: expressed in transfected cells; host or cells: AV12 cells
T4 sequence (P41595 whole entry): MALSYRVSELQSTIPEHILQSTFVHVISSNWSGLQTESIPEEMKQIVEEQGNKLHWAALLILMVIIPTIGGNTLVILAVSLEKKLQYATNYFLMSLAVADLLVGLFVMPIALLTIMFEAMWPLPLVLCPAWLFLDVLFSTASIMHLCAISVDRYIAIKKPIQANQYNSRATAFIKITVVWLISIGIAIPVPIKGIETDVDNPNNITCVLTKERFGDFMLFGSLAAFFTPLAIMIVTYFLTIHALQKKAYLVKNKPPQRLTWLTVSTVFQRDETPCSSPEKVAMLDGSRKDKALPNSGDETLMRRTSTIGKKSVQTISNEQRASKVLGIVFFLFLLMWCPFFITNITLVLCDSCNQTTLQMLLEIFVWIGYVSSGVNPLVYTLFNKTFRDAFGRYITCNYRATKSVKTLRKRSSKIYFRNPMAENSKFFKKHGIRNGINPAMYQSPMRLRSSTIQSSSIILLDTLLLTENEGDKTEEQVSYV
Experimental: as §1

h5-HT2C [5] = molecular target: T5, h5-HT2C (Homo sapiens, UniProt P28335); assay: Radioligand binding, human cloned h5-HT2C; conditions: agonist radioligand, read-out: Affinity, Mean
T5 construct: expressed in transfected cells; host or cells: AV12 cells
T5 sequence (P28335 33-458): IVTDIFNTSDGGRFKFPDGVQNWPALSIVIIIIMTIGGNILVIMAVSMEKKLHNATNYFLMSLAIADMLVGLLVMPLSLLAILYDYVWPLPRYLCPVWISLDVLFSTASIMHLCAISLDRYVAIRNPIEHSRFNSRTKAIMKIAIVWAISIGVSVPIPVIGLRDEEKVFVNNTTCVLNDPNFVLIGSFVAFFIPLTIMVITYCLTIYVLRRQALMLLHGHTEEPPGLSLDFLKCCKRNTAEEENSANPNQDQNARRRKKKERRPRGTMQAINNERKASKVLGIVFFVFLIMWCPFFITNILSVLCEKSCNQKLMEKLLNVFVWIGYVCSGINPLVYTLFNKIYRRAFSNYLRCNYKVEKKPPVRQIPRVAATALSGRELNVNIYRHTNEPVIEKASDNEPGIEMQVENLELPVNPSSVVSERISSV
Experimental: as §1

h5-HT2A [6] = molecular target: T1, h5-HT2A; assay: GTP-γ-[35S] functional assay (SPA), AV12 cells; format: biochemical
Description: (§2) 5-HT2 receptors are functionally coupled to specific G-proteins. Agonist activation of 5-HT2 G-protein coupled receptors results in the release of GDP from alpha-subunit (G alpha q or G alpha i) of the G-protein and the subsequent binding of GTP. The binding of the stable analog GTP-g-[^35S] is an indicator of receptor activation. Human cloned 5-HT2A, −2B, and −2C receptors were expressed in AV12 cells. GTP-g-[^35S] nucleotide exchange scintillation proximity assay (SPA) was used to measure binding as previously described ([14]).

h5-HT2B [7] = molecular target: T4, h5-HT2B; assay: GTP-γ-[35S] functional assay (SPA), AV12 cells; format: biochemical
Description: as §2

h5-HT2C [8] = molecular target: T5, h5-HT2C; assay: GTP-γ-[35S] functional assay (SPA), AV12 cells; format: biochemical
Description: as §2

h5-HT1D = molecular target: T6, h5-HT1D (Homo sapiens, UniProt P28221); assay: Radioligand binding, human cloned h5-HT1D; conditions: agonist radioligand, read-out: Affinity, Mean
T6 construct: expressed in transfected cells
T6 sequence (P28221 whole entry): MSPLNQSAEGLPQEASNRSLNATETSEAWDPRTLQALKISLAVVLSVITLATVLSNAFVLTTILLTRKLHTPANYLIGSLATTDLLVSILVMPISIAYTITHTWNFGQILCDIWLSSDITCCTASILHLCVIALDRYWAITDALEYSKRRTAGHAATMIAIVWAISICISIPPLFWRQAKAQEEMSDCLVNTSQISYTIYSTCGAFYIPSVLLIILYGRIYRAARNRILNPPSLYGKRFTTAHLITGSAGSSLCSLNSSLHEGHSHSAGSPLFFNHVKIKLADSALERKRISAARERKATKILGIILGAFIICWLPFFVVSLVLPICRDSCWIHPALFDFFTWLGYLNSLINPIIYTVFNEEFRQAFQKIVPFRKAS
Experimental: as §1

Male, NIH Swiss mice [9] = assay: Rotarod performance; format: in vivo, mouse; conditions: mice, 10 mg/kg
Description: Mice were not pretrained on this task.

[10] = 10 mg/kg, 5 days of consecutive dosing
[11] = GTPgs functional assay, human recombinant cell line

T1 sequence (P28223 whole entry): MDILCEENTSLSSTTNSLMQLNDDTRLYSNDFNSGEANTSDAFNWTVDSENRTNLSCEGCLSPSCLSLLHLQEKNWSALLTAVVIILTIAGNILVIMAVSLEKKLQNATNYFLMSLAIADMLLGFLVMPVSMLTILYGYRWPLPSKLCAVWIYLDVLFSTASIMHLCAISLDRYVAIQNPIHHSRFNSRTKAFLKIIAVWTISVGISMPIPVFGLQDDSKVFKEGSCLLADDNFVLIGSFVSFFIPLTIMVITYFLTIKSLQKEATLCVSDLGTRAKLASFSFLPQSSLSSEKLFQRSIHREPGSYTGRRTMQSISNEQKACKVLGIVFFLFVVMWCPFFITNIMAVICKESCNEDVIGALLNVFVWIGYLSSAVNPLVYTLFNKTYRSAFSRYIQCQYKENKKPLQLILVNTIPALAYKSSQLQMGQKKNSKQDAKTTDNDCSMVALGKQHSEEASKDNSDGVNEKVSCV

C[C@H]1CN(c2ccc(C(F)(F)F)c3ccoc23)CCN1 [CPD 1, (3S)-3-methyl-1-[4-(trifluoromethyl)-7-benzofuranyl]-piperazine]
Ki (h5-HT2A [1]; agonist radioligand, h5-HT2A, read-out: Affinity, Mean): 47.2 nM | selectivity for h5-HT2C over h5-HT2A receptors (h5-HT2A [1]; binding affinities): 22 fold | Effect on marble-burying compared to vehicle over five consecutive days (Male, NIH Swiss mice [2]; [10]): significantly decreased | Tolerance to suppressant effect on marble-burying with repeated dosing (Male, NIH Swiss mice [2]; [10]): did not produce tolerance | Marble-burying, minimal effective dose (Male, NIH Swiss mice [2]; 12/dose group): 10 milligrams per kilogram | Nestlet-shredding, minimal effective dose (Male, NIH Swiss mice [3]): 3 milligrams per kilogram | Ki (h5-HT4): 977 nM | Reduction of deprivation-induced drinking (Male, Wistar rats): 50% | Ki (h5-HT1E): 1040 nM | Ki (h5-HT2B [4]; agonist radioligand, h5-HT2B, read-out: Affinity, Mean): 104 nM | selectivity for h5-HT2C over h5-HT2B receptors (h5-HT2B [4]; binding affinities): 50 fold | Ki (h5-HT2C [5]): 2 nM and 2.11 nM | Functional activity (kind of agonism) (h5-HT2A [6]; 5-HT2A): partial agonist | EC50 (h5-HT2A [6]; [11]): 269 ± 19 nM | Emax (h5-HT2A [6]; [11]): 53 ± 2% | Functional activity (kind of agonism) (h5-HT2B [7]; 5-HT2B): partial agonist | EC50 (h5-HT2B [7]; [11]): 97 ± 23 nM | Emax (h5-HT2B [7]; [11]): 51% | Functional activity (kind of agonism) (h5-HT2C [8]; 5-HT2C): full agonist | EC50 (h5-HT2C [8]; [11]): 8.1 ± 0.5 nM | Emax (h5-HT2C [8]; [11]): 110 ± 1% | Ki (h5-HT1D): 296 nM | Rotarod falls and failures (Male, NIH Swiss mice [9]; after 5 days of dosing, 12 mice): neither falls nor failures | Rotarod failures (mice failing / tested) (Male, NIH Swiss mice [9]; day 1): 0/12 | Rotarod falls (mice falling / tested) (Male, NIH Swiss mice [9]; day 1): 2/12
